The values that follow come from patent US20260022142A1, “MACROCYCLIC IMMUNOMODULATORS” (Bristol-Myers Squibb Company, priority 2022, published 2026).

Bridge positions count the residues as written; N and C are the ends. Square brackets hold non-standard residues; d marks the D form. Peptide text beside a SMILES is read from it. * marks the point of attachment. Phe(4-CH2CH2COOH) = N[C@@H](Cc1ccc(CCC(=O)O)cc1)C(=O)O; Bip = N[C@@H](Cc1ccc(-c2ccccc2)cc1)C(=O)O; Phe(3-Me) = Cc1cccc(C[C@H](N)C(=O)O)c1; Cha = N[C@@H](CC1CCCCC1)C(=O)O; Cit = NC(=O)NCCC[C@H](N)C(=O)O; Carboxymethyl = O=C(O)C*; Orn = NCCC[C@H](N)C(=O)O; Aun = NCCCCCCCCCCC(=O)O; Dab = NCC[C@H](N)C(=O)O

T1 sequence (Q15116 25-288): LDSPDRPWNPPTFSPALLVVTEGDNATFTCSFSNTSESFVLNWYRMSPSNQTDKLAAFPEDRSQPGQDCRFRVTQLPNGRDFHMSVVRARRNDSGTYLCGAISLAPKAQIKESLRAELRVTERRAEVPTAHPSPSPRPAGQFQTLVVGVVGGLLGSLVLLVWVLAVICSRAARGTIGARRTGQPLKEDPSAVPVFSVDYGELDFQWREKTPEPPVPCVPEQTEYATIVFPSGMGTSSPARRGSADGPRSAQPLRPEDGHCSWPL

The assay concerns the target T1, PD-1/PD-L1 interaction (PE-labeled human PD-L1-Ig binding to Jurkat cell line over-expressing human PD-1) (Homo sapiens, UniProt Q15116).
T1 construct: expressed in transfected cells; host or cells: Jurkat
Nature of the assay: Jurkat-PD-1 Cell Binding High-Content Screening Assay (CBA). It is filed as cell-based. The note with it: Jurkat cell line over-expressing human PD-1; PE-labeled PD-L1-Ig 20 nM final; read-out: Jurkat hPD1-PDL1 IC50. The method in brief:
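Read-out is high-content imaging of cell-bound phycoerythrin-tagged PD-L1-Ig on fixed, Hoechst-counterstained Jurkat cells that over-express human PD-1. Compound exposure lasts 2 h at 37° C before the labeled ligand (20 nM final) is added for a further hour.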
Take `Cc1cccc(C[C@@H]2NC(=O)[C@H](CC(=O)O)NC(=O)[C@H](Cc3ccc(CCC(=O)O)cc3)NC(=O)[C@H](CCCNC(=N)N)NC(=O)CSC[C@@H](C(=O)N[C@@H](CCN)C(=O)N[C@@H](CO)C(=O)NCCCCCCCCCCC(=O)O)NC(=O)[C@H](CCC(=O)O)NC(=O)[C@H](C(C)C)NC(=O)[C@H](CC3CCCCC3)NC(=O)[C@H](CCN)NC(=O)[C@@H](CC(C)C)NC(=O)[C@H](CCN)NC(=O)[C@H](CCCNC(N)=O)NC(=O)[C@H](Cc3ccc(-c4ccccc4)cc3)NC(=O)[C@H](C(C)C)NC2=O)c1` [Compound 2813] ({CH2CO}-R[Phe(4-CH2CH2COOH)]D[Phe(3-Me)]V[Bip][Cit][Dab][dL][Dab][Cha]VEC[Dab]S[Aun]-OH; thioether N-14): the IC50 came to 181 nM.
With `Cc1cccc(C[C@@H]2NC(=O)[C@H](CC(=O)O)NC(=O)[C@H](Cc3ccc(CCC(=O)O)cc3)NC(=O)[C@H](CCCNC(=N)N)NC(=O)CSC[C@@H](C(=O)N[C@@H](CCCN)C(=O)N[C@@H](CO)C(=O)NCCCCCCCCCCC(=O)O)NC(=O)[C@H](CCC(=O)O)NC(=O)[C@H](C(C)C)NC(=O)[C@H](CC3CCCCC3)NC(=O)[C@H](CCN)NC(=O)[C@@H](CC(C)C)NC(=O)[C@H](CCN)NC(=O)[C@H](CCCNC(N)=O)NC(=O)[C@H](Cc3ccc(-c4ccccc4)cc3)NC(=O)[C@H](C(C)C)NC2=O)c1` [Compound 2814] ({CH2CO}-R[Phe(4-CH2CH2COOH)]D[Phe(3-Me)]V[Bip][Cit][Dab][dL][Dab][Cha]VEC[Orn]S[Aun]-OH; thioether N-14) the figure was 23.6 nM; with `CC(C)C[C@H]1NC(=O)[C@H](CCN)NC(=O)[C@H](CCCNC(N)=O)NC(=O)[C@H](Cc2ccc(-c3ccccc3)cc2)NC(=O)[C@H](C(C)C)NC(=O)[C@H](Cc2c[nH]c3ccccc23)NC(=O)[C@H](CC(=O)O)NC(=O)[C@H](Cc2ccc(OCC(=O)O)cc2)NC(=O)[C@H](CCCNC(=N)N)NC(=O)CSC[C@@H](C(=O)N[C@@H](CCCN)C(=O)NCCCCCCCCCCC(=O)O)NC(=O)[C@@H](CCC(N)=O)NC(=O)[C@H](C(C)C)NC(=O)[C@H](CC2CCCCC2)NC(=O)[C@H](CCN)NC1=O` [Compound 2816] ({CH2CO}-RY(Carboxymethyl)DWV[Bip][Cit][Dab][dL][Dab][Cha]V[dQ]C[Orn][Aun]-OH; thioether N-14), 74.9 nM; with `CC(C)C[C@H]1NC(=O)[C@H](CCN)NC(=O)[C@H](Cc2ccc(O)cc2)NC(=O)[C@H](Cc2ccc(-c3ccccc3)cc2)NC(=O)[C@H](C(C)C)NC(=O)[C@H](Cc2c[nH]c3ccccc23)NC(=O)[C@H](CC(=O)O)NC(=O)[C@H](Cc2ccc(OCC(=O)O)cc2)NC(=O)[C@H](CCCNC(=N)N)NC(=O)CSC[C@@H](C(=O)N[C@@H](CCCN)C(=O)NCCCCCCCCCCC(=O)O)NC(=O)[C@@H](CCC(N)=O)NC(=O)[C@H](C(C)C)NC(=O)[C@H](CC2CCCCC2)NC(=O)[C@H](CCN)NC1=O` [Compound 2817] ({CH2CO}-RY(Carboxymethyl)DWV[Bip]Y[Dab][dL][Dab][Cha]V[dQ]C[Orn][Aun]-OH; thioether N-14), 47.1 nM.
With `Cc1cccc(C[C@@H]2NC(=O)[C@H](CC(=O)O)NC(=O)[C@H](Cc3ccc(OCC(=O)O)cc3)NC(=O)[C@H](CCCNC(=N)N)NC(=O)CSC[C@@H](C(=O)N[C@@H](CCN)C(=O)NCCCCCCCCCCC(=O)O)NC(=O)[C@H](CCC(=O)O)NC(=O)[C@H](C(C)C)NC(=O)[C@H](CC3CCCCC3)NC(=O)[C@H](CCN)NC(=O)[C@@H](CC(C)C)NC(=O)[C@H](CCN)NC(=O)[C@H](Cc3ccc(O)cc3)NC(=O)[C@H](Cc3ccc(-c4ccccc4)cc3)NC(=O)[C@H](C(C)C)NC2=O)c1` [Compound 2818] ({CH2CO}-RY(Carboxymethyl)D[Phe(3-Me)]V[Bip]Y[Dab][dL][Dab][Cha]VEC[Dab][Aun]-OH; thioether N-14), the IC50 is 23.3 nM.
With `Cc1cccc(C[C@@H]2NC(=O)[C@H](CC(=O)O)NC(=O)[C@H](Cc3ccc(OCC(=O)O)cc3)NC(=O)[C@H](CCCNC(=N)N)NC(=O)CSC[C@@H](C(=O)N[C@@H](CCCN)C(=O)NCCCCCCCCCCC(=O)O)NC(=O)[C@H](CCC(=O)O)NC(=O)[C@H](C(C)C)NC(=O)[C@H](CC3CCCCC3)NC(=O)[C@H](CCN)NC(=O)[C@@H](CC(C)C)NC(=O)[C@H](CCN)NC(=O)[C@H](Cc3ccc(O)cc3)NC(=O)[C@H](Cc3ccc(-c4ccccc4)cc3)NC(=O)[C@H](C(C)C)NC2=O)c1` [Compound 2819] ({CH2CO}-RY(Carboxymethyl)D[Phe(3-Me)]V[Bip]Y[Dab][dL][Dab][Cha]VEC[Orn][Aun]-OH; thioether N-14) the figure was 21 nM; with `Cc1cccc(C[C@@H]2NC(=O)[C@H](CC(=O)O)NC(=O)[C@H](Cc3ccc(OCC(=O)O)cc3)NC(=O)[C@H](CCCNC(=N)N)NC(=O)CSC[C@@H](C(=O)N[C@@H](CCN)C(=O)NCCCCCCCCCCC(=O)O)NC(=O)[C@@H](CCC(N)=O)NC(=O)[C@H](C(C)C)NC(=O)[C@H](CC3CCCCC3)NC(=O)[C@H](CCN)NC(=O)[C@@H](CC(C)C)NC(=O)[C@H](CCN)NC(=O)[C@H](CCCNC(N)=O)NC(=O)[C@H](Cc3ccc(-c4ccccc4)cc3)NC(=O)[C@H](C(C)C)NC2=O)c1` [Compound 2820] ({CH2CO}-RY(Carboxymethyl)D[Phe(3-Me)]V[Bip][Cit][Dab][dL][Dab][Cha]V[dQ]C[Dab][Aun]-OH; thioether N-14), 23.9 nM.
On to `Cc1cccc(C[C@@H]2NC(=O)[C@H](CC(=O)O)NC(=O)[C@H](Cc3ccc(OCC(=O)O)cc3)NC(=O)[C@H](CCN)NC(=O)CSC[C@@H](C(=O)N[C@@H](CCN)C(=O)NCCCCCCCCCCC(=O)O)NC(=O)[C@H]([C@@H](C)O)NC(=O)[C@H](C(C)C)NC(=O)[C@H](CC3CCCCC3)NC(=O)[C@H](CCN)NC(=O)[C@@H](CC(C)C)NC(=O)[C@H](CCCN)NC(=O)[C@H](CCCNC(N)=O)NC(=O)[C@H](Cc3ccc(-c4ccccc4)cc3)NC(=O)[C@H](C(C)C)NC2=O)c1` [Compound 2821] ({CH2CO}-[Dab]Y(Carboxymethyl)D[Phe(3-Me)]V[Bip][Cit][Orn][dL][Dab][Cha]VTC[Dab][Aun]-OH; thioether N-14), for which the IC50 came out at 10.9 nM.
In the case of `Cc1cccc(C[C@@H]2NC(=O)[C@H](CC(=O)O)NC(=O)[C@H](Cc3ccc(OCC(=O)O)cc3)NC(=O)[C@H](CCCN)NC(=O)CSC[C@@H](C(=O)N[C@@H](CCN)C(=O)NCCCCCCCCCCC(=O)O)NC(=O)[C@H]([C@@H](C)O)NC(=O)[C@H](C(C)C)NC(=O)[C@H](CC3CCCCC3)NC(=O)[C@H](CCN)NC(=O)[C@@H](CC(C)C)NC(=O)[C@H](CCCN)NC(=O)[C@H](CCCNC(N)=O)NC(=O)[C@H](Cc3ccc(-c4ccccc4)cc3)NC(=O)[C@H](C(C)C)NC2=O)c1` [Compound 2822] ({CH2CO}-[Orn]Y(Carboxymethyl)D[Phe(3-Me)]V[Bip][Cit][Orn][dL][Dab][Cha]VTC[Dab][Aun]-OH; thioether N-14) it was 21.9 nM.
With `Cc1cccc(C[C@@H]2NC(=O)[C@H](CC(=O)O)NC(=O)[C@H](Cc3ccc(OCC(=O)O)cc3)NC(=O)[C@H](CCCCN)NC(=O)CSC[C@@H](C(=O)N[C@@H](CCN)C(=O)NCCCCCCCCCCC(=O)O)NC(=O)[C@H]([C@@H](C)O)NC(=O)[C@H](C(C)C)NC(=O)[C@H](CC3CCCCC3)NC(=O)[C@H](CCN)NC(=O)[C@@H](CC(C)C)NC(=O)[C@H](CCCN)NC(=O)[C@H](CCCNC(N)=O)NC(=O)[C@H](Cc3ccc(-c4ccccc4)cc3)NC(=O)[C@H](C(C)C)NC2=O)c1` [Compound 2823] ({CH2CO}-KY(Carboxymethyl)D[Phe(3-Me)]V[Bip][Cit][Orn][dL][Dab][Cha]VTC[Dab][Aun]-OH; thioether N-14) the figure was 16.4 nM.

One may read the IC50 as the concentration at which inhibition is half-maximal.
